From patent publication US12714682B2, “Calixarene compounds and uses thereof” (UNIVERSITÄT WIEN, priority 2019, dated 2026)
Entries after “also recorded” stand apart in the source; their conditions may differ.

Key:
[1] = tested on: SH-SY5Y neuroblastoma cells; experiment: MPP+ induced mitochondria fragmentation in SH-SY5Y cells (MitoTracker confocal imaging); format: cell-based, human; conditions: MPP+ 0.5 mM 48 hours, SCA-744 500 μM
Experimental: To test whether SCA-744 would be able to rescue cells from oxidative damage induced by mitochondrial dysfunction, SH-SY5Y neuroblastoma cells were treated with 1-methyl-4-phenylpyridinium (MPP+) (0.5 mM, 48 hours) to induce mitochondria fragmentation. […] To visualize mitochondria, cells were incubated with MitoTracker Red CMXRos, a mildly thiol-reactive chloromethyl moiety for mitochondria labelling (MitoTracker Red CMXRos #9082 Cell Signaling), fixed and mounted. Mitochondrial morphology was imaged with a laser scanning confocal microscope LSM710 Zeiss.

[2] = tested on: Human neuroblastoma SH-SY5Y cells; experiment: Untargeted metabolic profiling of SH-SY5Y cells; format: cell-based; conditions: 500 μM, 24 h
Experimental: Human neuroblastoma SH-SY5Y cells were differentiated and treated with 500 μM SCA-744 for 24 h. Cell pellets were extracted using a MeOH:ACN:H2O (2:2:1, v/v) solvent mixture. Untargeted metabolic profiling was performed at the VBCF Metabolomic Unit (www.vbcf.ac.at) employing high-resolution mass spectrometry.
The untarged metabolomic data was analyzed with the Compound Discover Software (version 3.1). The first set of metabolites were analyzed through the internal database of the Vienna Biocenter Core facility. The measured retention time of a compound was compared to the retention time of a standard previously measured. In the case there was a MS2 spectrum available, this was also taken into consideration for identification. The second set of metabolites was annotated with mzCloud (match at least 75%). Identification was based on mzCloud database comparison of measured molecular weight (5 ppm tolerance) and MS2 spectra. The third set of metabolites were annotated via ChemSpider identification (CSID) through molecular weight matching (max. mass tolerance 5 ppm). P-values were calculated by the Compound Discover Software from biological and technical (T1-T2, MS) replicates. For further annotations KEGG, HMDB, BioCyc, Metabolika and PubChem databases were used.
The metabolites with a false discovery rate (FDR)<0.05 along with p-values and corresponding fold-change were extracted and subjected to chemical and metabolic network enrichment analysis. Enrichment analysis based on chemical similarity was conducted using ChemRich that is independent of biochemical pathway assignments, but rather utilizes Tanimoto substructure similarity coefficients and medical subject headings ontology to generate non-overlapping clusters of metabolites into distinct chemical classes. Statistical testing was determined by Kolmogorv-Smirnov testing and an FDR adjusted P value of <0.05 was considered significant.
Comparison of relative metabolite abundance between control and -treated cells was determined by unpaired univariate analysis. Calculated P values were adjusted based on an FDR of 0.05 and filtered by log Fold-Change (log FC) analysis (Table 3). For illustrative purposes the metabolites are annotated on the resulting volcano plot with log FC>1 log FC<−2. A total of 261 annotated metabolites were found with an FDR<0.05.

HELA cells = experiment: Protection from H2O2 induced stress; format: cell-based
Experimental: Using an incubation time of 24 h, it was sufficient to determine the toxicity and rescue effect of SCA-744 in HELA cells.

LDL-R = LDL-R immunoblot in HeLa cells; format: cell-based, human; conditions: 50 or 500 μM, 24 or 48 hours, no signal in control
Experimental: As illustrated in the Table 1 (FIG. 10), the SCA-744 affects the expression of several genes involved in lipid metabolism, such as the Low-density Lipoprotein Receptor, a major determinant of cholesterol levels in plasma. LDLR. […] To assess directly the effect of SCA-744 on the level of LDL-R expression, HeLa cells were treated with SCA-744 at 50 or 500 μM concentrations for 24 or 48 hours. Cells were harvested, cell lysate prepared and then analysed by immunoblotting using an anti-human LDL-R antibody (C7: sc-18823, Santa Cruz Biotechnologies).

C57BL/6J mice = experiment: LPS-induced acute lung inflammation model: respiratory function (plethysmography); format: in vivo; conditions: 100 μg LPS intratracheal, measured 24 h after; SCA-744 60 mg/kg i.p. 4 doses; dexamethasone 5 mg/kg ip. 2 doses
Experimental: Acute lung inflammation was induced by intratracheal administration of 100 μg LPS (Escherichia coli O111:B4; Sigma Aldrich, St. Louis, MO, USA) dissolved in 60 μl sterile phosphate buffered saline (PBS) under ketamine (120 mg/kg ip.; Calypsol, Gedeon Richter Plc., Budapest, Hungary) and xylazine (6 mg/kg ip.; Sedaxylan, Eurovet Animal Health B.V., Bladel, Netherlands) anaesthesia. 24 h after administration, respiratory function parameters were assessed, and lung samples were harvested for histopathological evaluation.
SCA-744 (60 mg/kg) and its vehicle were injected intraperitoneally (i.p.), 24 h, 12 h, 20 min before and 12 h after intratracheal administration of LPS. […] 24 h and 20 min before LPS treatment. Respiratory function measurement was performed 24 h after LPS administration
Buxco FinePoint Non-invasive Airway Mechanics (NAM) double chamber plethysmography (DSI Harvard Bioscience Inc.) was used to monitor ventilatory and bronchoconstriction parameters in awake, restrained animals without the use of anesthesia. The plethysmograph measures the nasal and thoracic flows independently. […] After 10 minutes of acclimatization period baseline pulmonary functions were assessed, such as the frequency, tidal volume, minute ventilation, expiratory/inspiratory time, peak expiratory/inspiratory flow, and specific airway resistance, a measure of bronchoconstriction.

[3] = tested on: SH-SY5Y (neuroblastoma cell line); experiment: RNAseq global gene expression in differentiated SH-SY5Y cells; format: cell-based, human
Experimental: To determine the cellular response to SCA-744 (Cat. No. 55523-250 MG Sigma-Aldrich), the global changes in gene expression upon treatment of human in vitro cultured cells, SH-SY5Y (neuroblastoma cell line: SH-SY5Y-ATCC-CRL-2266) were analysed by RNAseq analysis. SH-SY5Y were cells differentiated with retinoic acid and Phorbol-12-Myristate-13-Acetate (Presgraves et al. Experimental Neurology 2004, 190(1), pp. 157-170). Cell cultures were treated for 24 hours with 500 μM of SCA-744 or vehicle (DPBS). Total RNA was isolated to prepare libraries using the Lexogen SENSE mRNA kit and sequenced using a HiSeq2500 (Illumina) running in 50 bp single-read modes using sequencing chemistry v4. Differentially expressed genes (DEGs) were identified by applying the statistical tests of DESeq (Anders & Huber, Genome biology 2010, 11(10), p. R106), and edgeR (Robinson et al. Bioinformatics 2009, 26(1), pp. 139-140.) packages. The comparison was made with Homo sapiens identifiers.

[4] = 500 μM, 24 hours, differentiated SH-SY5Y

SMILES: O=S(=O)(O)c1cc2c(O)c(c1)Cc1cc(S(=O)(=O)O)cc(c1O)Cc1cc(S(=O)(=O)O)cc(c1O)Cc1cc(S(=O)(=O)O)cc(c1O)C2 [SCA-744, 4-sulfocalix[4]arene]
- mitochondria integrity after MPP+ [1]: protects against cell death and restores mitochondria integrity; also recorded: cells maintained the integrity of mitochondria
- Glycolysis and NADH, as well as ATP [2]: significant down-regulated
- Hypoxanthine and Inosine abundance [2]: highly significant up-regulated
- Lysophosphatidyl (LPI) abundance [2]: most up-regulated metabolite
- Thymine and adenine nucleotides, dipeptides and amino acids [2]: down-regulated
- pharmacological response in metabolic analysis [2]: altered lipid metabolism, down-regulated glycolysis and reduction of NADH, ATP
- EC50 (HELA cells; Homo sapiens, HELA, 24 h incubation, H2O2 50 mM, read-out: EC50 rescue from H2O2 toxicity): 200 nM
- protection from H2O2 induced damage (HELA cells; mammalian cells, FIG. 20): protects against oxidative stress from H2O2 induced damage
- LDL-R protein (immunoblot) (LDL-R): induces the expression of LDLR; also recorded: the LDL-R was detected in the cell lysates
- respiratory function parameters (fBPM, FRC, Te, Rpef, Ti) versus control animals (C57BL/6J mice): significantly improved; also recorded: did not induce statistically significant alterations
- genes for LDLR, INSIG1 and DHCR24/Seladin-1 [3]: found to be modulated
- genes involved in inflammation, anti-oxidative, anti-ageing response and lipid metabolism (RNAseq) [3, 4]: differentially regulated
- mRNA expression of anti-oxidative genes CHAC1, NQO1, SLC7A11 (RNASeq) [3, 4]: significant up-regulation
- mRNA expression of key genes involved in pro-inflammatory response [3, 4]: down regulates key genes involved in pro-inflammatory response
